Test results: patent publication US12338219B2, “Antimalarial agents” (Merck Sharp & Dohme LLC, priority 2019, dated 2025)

Each molecule was assayed on parasites (ring stage parasites, parasite growth) (assay: Parasite LDH growth assay (Parasite Assay), antiparasite potency). Settings: 72 h, 72 hours growth, LDH readout; Table 3.
Type: cell-based
Protocol: Assessing Antiparasite Potency in a Parasite LDH Growth Assay (Parasite Assay) The parasite stock was maintained at […] in RPMI-Hepes media buffered with sodium bicarbonate and supplemented with […]. […] On the day of assay set up, a blood smear of the parasite culture was Giemsa stained and counted. The parasitemia was adjusted to 0.7% rings and the haematocrit was diluted to 2% in RPMI-Hepes media buffered with sodium bicarbonate and supplemented with 500 heat inactivated human serum and 0.5% albumax. 30 ul of diluted parasites are then added into 10 ul of media+compound in pre-prepared Greiner TC assay plates. Parasite assay plates were placed in gassed humidified boxes in single layer and allowed to incubate at 37° C. for 72 hours. After 72 hours growth, assay plates are sealed with parafilm and frozen flat, in single file at −80° C. overnight. On the following day, assay plates are allowed to thaw at room temperature for 4 hours to which an LDH assay is performed to measure parasite growth.

SMILES | EC50
COCC[C@H]([C@@H]1C[C@H]1C(=O)NC1CC(C)(C)Oc2ccc(OC(F)(F)F)cc21)N1C(=N)NC(C)(C)CC1=O (stereo partly drawn) [Example 126A] | 4.7 nM
CCC1(CC)CC(=O)N([C@@H](c2cccnc2)[C@@H]2C(C)[C@H]2C(=O)N[C@H]2CC(C)(C)Oc3ccccc32)C(=N)N1 (stereo partly drawn) [Example 56A] | 65 nM
CC1(C)CC(=O)N([C@H](c2cccnc2)[C@@H]2C[C@H]2C(=O)N[C@@H]2c3ccccc3OC(C)(C)[C@H]2O)C(=N)N1 [Example 27] | 78 nM
COc1cncc([C@H]([C@@H]2C[C@H]2C(=O)N[C@@H]2c3ccccc3OC(C)(C)[C@H]2O)N2C(=N)NC(C)(C)CC2=O)c1 [Example 42] | 18.4 nM
CCC1(CC)CC(=O)N(C[C@H]2C[C@@H]2C(=O)N[C@@H]2c3ccccc3C[C@H]2O)C(=N)N1 [Example 6A] | 188 nM
COCC[C@H]([C@@H]1C[C@H]1C(=O)NC1CC(C)(C)Oc2c(Cl)cccc21)N1C(=N)NC(C)(C)CC1=O (stereo partly drawn) [Example 112A] | 18 nM
COCC[C@H]([C@@H]1C[C@H]1C(=O)N[C@@H]1CC(C)(C)Oc2cc(C)c(Cl)cc21)N1C(=N)NC(C)(C)CC1=O [Example 137A] | 12 nM
CCC1(CC)CC(=O)N(CC2C(C(=O)N[C@H]3C[C@H](C(F)(F)F)Oc4ccccc43)C2(C)C)C(=N)N1 (stereo partly drawn) [Example 31A] | 215 nM
CC1(C)CC(=O)N(C[C@@H]2C[C@H]2C(=O)N[C@H]2CC3(CCC3)Oc3ccccc32)C(=N)N1 [Example 135] | 190 nM
CC1(C)CC(=O)N([C@H](c2cccnc2)[C@@H]2C[C@H]2C(=O)N[C@H]2CC(C)(C)Oc3ccccc32)C(=N)N1 [Example 26] | 4.7 nM
COCC[C@H]([C@@H]1C[C@H]1C(=O)N[C@H]1CC(C)(C)Oc2cccc(Cl)c21)N1C(=N)NC(C)(C)CC1=O [Example 116A] | 0.8 nM
CCC1(CC)CC(=O)N([C@H](c2cccnc2)[C@@H]2C[C@H]2C(=O)N[C@H]2C[C@H](C(F)(F)F)Oc3ccccc32)C(=N)N1 [Example 12] | 0.9 nM
CCC1(C)C[C@H](NC(=O)[C@@H]2C[C@H]2CN2C(=N)NC(C)(C)CC2=O)c2ccccc2O1 (stereo partly drawn) [Example 78] | 300 nM
CCC1(CC)CC(=O)N([C@H](c2cccnc2)[C@@H]2C[C@H]2C(=O)N[C@@H]2c3ccccc3C[C@H]2O)C(=N)N1 [Example 10] | 27 nM
CCC1(CC)CC(=O)N([C@@H](c2cccnc2)[C@H]2[C@H](C(=O)N[C@H]3C[C@H](C(F)(F)F)Oc4ccccc43)C2(C)C)C(=N)N1 [Example 44A] | 8.3 nM
CCC1(CC)CC(=O)N(C[C@@H]2C[C@H]2C(=O)N[C@@H](C)c2ccccc2)C(=N)N1 [Example 3B] | 151 nM
COCC[C@H]([C@@H]1C[C@H]1C(=O)N[C@@H]1CC(C)(C)Oc2cc(OC)ccc21)N1C(=N)NC(C)(C)CC1=O [Example 70A] | 77 nM
CCC1(CC)CC(=O)N(C[C@H]2C(C(=O)N[C@@H]3c4ccccc4OC(C)(C)[C@H]3O)C2(F)F)C(=N)N1 (stereo partly drawn) [Example 18A] | 39 nM
COCC[C@H]([C@@H]1C[C@H]1C(=O)N[C@H]1CC(C)(C)Oc2ccccc21)N1C(=N)N[C@](C)(C(C)C)CC1=O [Example 20] | 5.3 nM
CC1(C)CC(=O)N(C[C@@H]2C[C@H]2C(=O)N[C@H]2CC(C)(C)Oc3cccc(OC(F)(F)F)c32)C(=N)N1 [Example 118] | 63 nM
COCC[C@H]([C@@H]1C[C@H]1C(=O)N[C@@H]1CC(C)(C)Oc2cccc(Cl)c21)N1C(=N)NC(C)(C)CC1=O [Example 116B] | 18 nM
CCC1(CC)CC(=O)N([C@H](c2cccnc2)[C@@H]2C(C)[C@H]2C(=O)N[C@H]2C[C@H](C(F)(F)F)Oc3ccccc32)C(=N)N1 (stereo partly drawn) [Example 55A] | 0.8 nM
Cc1ccc2c(c1)OC(C)(C)C[C@@H]2NC(=O)[C@@H]1C[C@H]1[C@@H](c1cccnc1)N1C(=N)NC(C)(C)CC1=O [Example 85B] | 0.9 nM
Cc1cc2c(cc1Cl)[C@@H](NC(=O)[C@@H]1C[C@H]1CN1C(=N)NC(C)(C)CC1=O)CC(C)(C)O2 [Example 136] | 160 nM
CC1(C)CC(=O)N(C[C@@H]2C[C@H]2C(=O)N[C@H]2CC(C)(C)Oc3ccc(F)cc32)C(=N)N1 [Example 71] | 125 nM
COc1cccc2c1C(NC(=O)[C@@H]1C[C@H]1[C@@H](c1cccnc1)N1C(=N)NC(C)(C)CC1=O)CC(C)(C)O2 (stereo partly drawn) [Example 96A] | 2.7 nM
CCC1(CC)CC(=O)N(C[C@@H]2C[C@H]2C(=O)N[C@H]2CC(C)(C)Oc3ccccc32)C(=N)N1 [Example 5] | 49 nM

Same assay, conditions: 72 h, 72 hours growth, LDH readout; Table 4 (unit inferred)

SMILES | EC50
CCC1(CC)CC(=O)N([C@H](CCOC)[C@@H]2C[C@H]2C(=O)N[C@@H]2c3cc(Cl)ccc3OC(C)(C)[C@H]2O)C(=N)N1 [Example 150] | 3.9 nM

Same assay, conditions: 72 hours growth, LDH readout; Table 3

SMILES | EC50
CCC1(CC)CC(=O)N(CC2C(C(=O)N[C@H]3CC(C)(C)Oc4ccccc43)C2(F)F)C(=N)N1 (single isomer, unassigned) [Example 16A] | 33 nM
COCC[C@H]([C@@H]1C[C@H]1C(=O)NC1CC(C)(C)Oc2ccc(OC(F)(F)F)cc21)N1C(=N)NC(C)(C)CC1=O (stereo partly drawn) [Example 126B] | 8.4 nM
CC[C@]1(C)CC(=O)N([C@H](CCOC)[C@@H]2C[C@H]2C(=O)NC2CC(C)(C)Oc3ccc(F)cc32)C(=N)N1 (single isomer, unassigned) [Example 130A] | 0.9 nM
COCC1(C)CC(NC(=O)[C@@H]2C[C@H]2[C@@H](c2cccnc2)N2C(=N)NC(C)(C)CC2=O)c2ccccc2O1 (single isomer, unassigned) [Example 108B] | 3.7 nM
CCC1C[C@H](NC(=O)[C@@H]2C[C@H]2CN2C(=N)NC(C)(C)CC2=O)c2ccccc2O1 (single isomer, unassigned) [Example 133A] | 210 nM
COCC[C@H]([C@@H]1C[C@H]1C(=O)NC1CC(C)(COC)Oc2ccccc21)N1C(=N)NC(C)(C)CC1=O (single isomer, unassigned) [Example 82B] | 57 nM
CCC1C[C@H](NC(=O)[C@@H]2C[C@H]2CN2C(=N)NC(C)(C)CC2=O)c2ccccc2O1 (single isomer, unassigned) [Example 133B] | 100 nM
CC1C[C@H](NC(=O)[C@@H]2C[C@H]2CN2C(=N)NC(C)(C)CC2=O)c2cc(F)ccc2O1 (stereo partly drawn) [Example 139B] | 130 nM
COCC[C@H]([C@@H]1C[C@H]1C(=O)NC1CC(C)(C)Oc2c(Cl)cccc21)N1C(=N)NC(C)(C)CC1=O (stereo partly drawn) [Example 112B] | 9.4 nM
CC(C)C1(C)CC(NC(=O)[C@@H]2C[C@H]2[C@@H](c2cccnc2)N2C(=N)NC(C)(C)CC2=O)c2ccccc2O1 (single isomer, unassigned) [Example 81C] | 0.9 nM
COCC[C@H]([C@@H]1C[C@H]1C(=O)NC1CC(C)(C(C)C)Oc2ccccc21)N1C(=N)NC(C)(C)CC1=O (single isomer, unassigned) [Example 80D] | 21 nM
CC1(C)CC(=O)N([C@H](c2cccnc2)[C@@H]2C[C@H]2C(=O)NC2CC(C)(C)Oc3c(Cl)cccc32)C(=N)N1 (stereo partly drawn) [Example 121B] | 2 nM
CCC1(CC)CC(=O)N(C[C@@H]2C(C)[C@H]2C(=O)N[C@@H]2c3ccccc3CC2(C)O)C(=N)N1 (single isomer, unassigned) [Example 29A] | 203 nM
CC1(C)CC(=O)N(C(c2cccnc2)[C@H]2[C@H](C(=O)N[C@H]3CC(C)(C)Oc4ccccc43)C2(C)C)C(=N)N1 (stereo partly drawn) [Example 49B] | 14 nM
CCC1(C)CC(NC(=O)[C@@H]2C[C@H]2[C@@H](CCOC)N2C(=N)NC(C)(C)CC2=O)c2ccccc2O1 (single isomer, unassigned) [Example 75D] | 7 nM
CC[C@]1(C)CC(=O)N(C(c2cncc(F)c2)[C@@H]2C[C@H]2C(=O)NC2c3ccccc3OC(C(F)(F)F)C2O)C(=N)N1 (single isomer, unassigned) [Example 104A] | 4 nM
CCC1(CC)CC(=O)N(C[C@@H]2C(C)[C@H]2C(=O)NC2c3ccccc3OC2(C)C)C(=N)N1 (stereo partly drawn) [Example 36B] | 301 nM
CC1(C)CC(=O)N(C[C@@H]2C[C@H]2C(=O)NC2CC(C)(C)Oc3c(Cl)cc(Cl)cc32)C(=N)N1 (stereo partly drawn) [Example 97B] | 220 nM
CCC1(CC)CC(=O)N(C[C@@H]2C(C)[C@H]2C(=O)N[C@@H]2c3ccccc3OC(C)(C)[C@H]2O)C(=N)N1 (single isomer, unassigned) [Example 30B] | 7.7 nM
CC(C)C1(C)CC(NC(=O)[C@@H]2C[C@H]2[C@@H](c2cccnc2)N2C(=N)NC(C)(C)CC2=O)c2ccccc2O1 (single isomer, unassigned) [Example 81D] | 1.3 nM
CCC1(CC)CC(=O)N(CC2C(C(=O)N[C@H]3C[C@H](C(F)(F)F)Oc4ccccc43)C2(F)F)C(=N)N1 (single isomer, unassigned) [Example 17B] | 20 nM
COCC[C@H]([C@@H]1C[C@H]1C(=O)N[C@H]1C[C@H](C(F)(F)F)Oc2ccccc21)N1C(=N)N[C@](C)(C(C)C)CC1=O [Example 21A] | 260 nM
CCC1(CC)CC(=O)N(CC2C(C(=O)N[C@H]3C[C@H](C(F)(F)F)Oc4ccccc43)C2(F)F)C(=N)N1 (single isomer, unassigned) [Example 17A] | 47 nM
CC[C@]1(C)CC(=O)N([C@H](CCOC)[C@@H]2C[C@H]2C(=O)NC2CC(C)(C)Oc3ccc(OC(F)(F)F)cc32)C(=N)N1 (stereo partly drawn) [Example 129B] | 2.5 nM
CC(C)C1(C)CC(NC(=O)[C@@H]2C[C@H]2[C@@H](c2cccnc2)N2C(=N)NC(C)(C)CC2=O)c2ccccc2O1 (single isomer, unassigned) [Example 81B] | 1 nM

Same assay, conditions: 72 hours growth, LDH readout; Table 4 (unit inferred)

SMILES | EC50
CCC1(CC)CC(=O)N(C(CC(C)OC)[C@@H]2C[C@H]2C(=O)N[C@H]2CC(C)(C)Oc3ccccc32)C(=N)N1 (single isomer, unassigned) [Example 142A] | 1.9 nM
